Results reported in patent US10568949B2, “Method of eliciting an anti-tumor immune response with controlled delivery of TLR agonists in porous polymerlc devices” (President and Fellows of Harvard College, priority 2008, dated 2020).

B1: Fms-related tyrosine kinase 3 ligand (protein, UniProt P49772 27-232, looked up)
Fms-related tyrosine kinase 3 …: GTPDCYFSHSPISSNFKVKFRELTDHLLKDYPVTVAVNLQDEKHCKALWSLFLAQRWIEQLKTVAGSKMQTLLEDVNTEIHFVTSCTFQPLPECLRFVQTNISHLLKDTCTQLLALKPCIGKACQNFSRCLEVQCQPDSSTLLPPRSPIALEATELPEPRPRQLLLLLLLLLPLTLVLLAAAWGLRWQRARRRGELHPGVPLPSHP
notes: recombinant murine cytokine (Peprotech) released from PLG matrices
B2: CCL20 (protein, UniProt O89093 28-97, looked up)
C-C motif chemokine 20: ASNYDCCLSYIQTPLPSRAIVGFTRQMADEACDINAIIFHTKKRKSVCADPKQNWVKRAVNLLSLRVKKM
notes: as for B1

What was measured:
dendritic cells [1] = experiment: Example 7: DC recruitment and activation in matrices with GM-CSF and TLR agonists (FACS, day 7); format: in vivo, C57BL/6J mice; conditions: with GM-CSF
Excerpt: The cell suspensions were then poured through a 40 μm cell strainer to isolate cells from scaffold particles and the cells were pelleted and washed with cold PBS and counted using a Z2 coulter counter (Beckman Coulter). To assess, DC infiltration and activation, subsets of the total cell population isolated from PLG matrices were then stained with primary antibodies (BD Pharmingen, San Diego, Calif.) conjugated to fluorescent markers to allow for analysis by flow cytometry. APC-conjugated CD11c (dendritic cell marker), FITC-conjugated MHCII and PE-conjugated CD86 (B7, costimulatory molecule) stains were conducted for DC recruitment and activation analysis. To further delineate the presence of specific DC subsets, cells were also stained with APC-conjugated CD11c and PE-conjugated PDCA-1 (plasmacytoid DC marker) or APC-conjugated CD11c and PE-conjugated CD8 (CD8 DCs). To assess T-cell infiltration PE-Cy7 conjugated CD3 stains were performed in conjunction with APC-conjugated CD8a (CD8 T cells), and PE-conjugated FoxP3 (Treg) and analyzed with flow cytometry. Cells were gated according to single positive FITC, APC and PE stainings and using isotype controls. The percentage of cells staining positive for each surface antigen was recorded. To examine the ability of PLG matrices to recruit and activate dendritic cells in vivo, matrices delivering GM-CSF in combination with danger signals were implanted subcutaneously into the backs of C57BL/6J mice. The magnitude of DC infiltration and activation into the matrices was determined by FACS analysis of cell populations isolated from the polymeric material after 7 days.

IL-12p70 = experiment: Example 7: cytokine concentrations at implant site; format: in vivo, C57BL/6J mice; conditions: with GM-CSF
Protocol: To determine in vivo IL-12p70 concentration at the matrix implant site, adjacent tissue was excised and digested with tissue protein extraction reagent. After centrifugation, the concentrations of IL-12, in the supernatant were then analyzed with ELISA (R&D systems), according to the manufacturer's instructions.

B16-F10 melanoma cells [2] = experiment: Example 7: prophylactic vaccination, B16-F10 melanoma; format: in vivo, C57BL/6J mice; design: concentration or dose not given beside the values; conditions: B16-F10 tumor lysates and GM-CSF, with or without TLR agonist; challenge at day 14
B16-F10 tumors = experiment: Example 7: tumor infiltrating leukocyte (TIL) characterization; design: species or system C57BL/6J mice; conditions: mouse, in vivo
Protocol: On the indicated days, B16-F10 tumors were removed from mice, and digested in 1 mg/mL collagenase II (250 U/ml) (Worthington, Lakewood, N.J.) and 0.1 mg/mL DNase for 1 hour at 37° C. Dissociated cells were filtered through a 40-μm filter, and directly stained with antibodies for phenotype characterization by fluorescence-activated cell sorting (FACS) analysis. APC-anti-CD8 and PE-Cy7-anti CD3 were used to identify T cells isolated from the B16F10 tumors. These TILs were also costained with FITC-anti-IFNγ, and PE-anti-CD107a. All antibodies were obtained from eBioscience, San Diego, Calif.

B16-F10 melanoma cells [3] = experiment: Example 7: therapeutic vaccination of established B16-F10 melanoma
Protocol: To assess PLG vaccine efficacy in the therapeutic setting, C57/BL6J mice were challenged with a subcutaneous injection of 5×10^5 B16-F10 melanoma cells (ATCC, Manassas, N.J.) in the back of the neck. At day 9 after tumor challenge PLG vaccines loaded with 3000 ng GM-CSF in combination with 100 μg of CpG-ODN, MPLA or P(I:C), and tumor lysates were implanted subcutaneously into the lower left flank of C57BL/6J mice. A subset of mice were vaccinated again 10 days after the initial vaccination (Days 19 and 23).
Mice challenged with 5×10^5B16-F10 melanoma cells were subsequently vaccinated at days 9 and 19, after tumors were established.

[4] = In vitro release / retention of GM-CSF, cytokines and TLR agonists from PLG scaffolds; format: physicochemical; conditions: for incorporated cytokine released from scaffolds: by day 4, in vitro; for daily release of protein: over the next 23 days after day 4
Protocol: To determine the incorporation efficiency of CpG-ODN incorporation, PLG scaffolds were prepared with 50 ug of CpG-ODN and digested in 1 ml of chloroform (Sigma Aldrich, and washed with 2 mls of aqueous buffer. The aqueous phase was isolated and the amount of CpG-ODN incorporated was determined by absorbance readings (260/280 and 260/230 ratios calculated at 0.2 mm pathlength) using a Nanodrop instrument, ND1000 (Nanodrop technologies, Wilmington, Del.). Similarly, to determine CpG-ODN release kinetics CpG-ODN loaded scaffolds were placed in 1 ml of Phosphate Buffer Solution (PBS) in an incubator (37° C.). At various timepoints, the PBS release media was collected and replaced with fresh media. The total amount of CpG-ODN incorporated into PLG scaffolds and released into PBS over time was analyzed and recorded.

[5] = tested on: bone marrow derived dendritic cells; experiment: Example 8: transwell chemotaxis and chemokinesis of bone marrow derived DCs; format: cell-based, C57BL/6 mice; conditions: 12 h; for DC chemotaxis, migration higher than control condition: 500 ng/ml in bottom wells; for DC chemokinesis, increase in number of migrated cells: homogenous cytokine 500 ng/ml
Protocol: Primary bone-marrow-derived dendritic cells (BMDCs) were flushed from the femurs of C57BL/6 mice and cultured in 100-mm bacteriological petri dishes (Falcon number 1029/Becton Dickinson). Cell culture medium RPMI-1640 (R10) (Sigma) was supplemented with 1% Penicillin-Streptomycin (Invitrogen), 2 mM 1-Glutamine (Invitrogen), 50 μM 2-mercaptoethanol (Sigma) and 10% heat-inactivated fetal bovine serum (FBS, Invitrogen). At day 0, bone marrow leukocytes were seeded at 2×10^6 cells per 100-mm dish in 10 ml R10 medium containing 20 ng/nil granulocyte-macrophage colony-stimulating factor (GM-CSF) (Peprotech). At day 3, another 10 ml R10 medium containing 20 ng/mL GM-CSF was added. to the plates. At days 6 and 8, half of the culture supernatant was collected and centrifuged, the cell pellet was resuspended in 10 ml fresh R10 containing 20 ng/mL GM-CSF, and placed back into the original plate. The non-adherent cell population in the culture supernatant was used between days 8 and 12 for all the experiments.
Transwell migration studies were performed by plating bone marrow derived dendritic cells in the top well of 6.5 mm transwell dishes (Costar, Cambridge, Mass.) with a pore size of 5 μm. The chemotactic effects of GM-CSF, FL (Flt3), and CCL20 on the migration of BMDCs was assessed by placing 500 ng/ml of recombinant murine GM-CSF, FL or CCL20 (Peprotech, Rocky Hill, N.J.) in the bottom wells and 3×10^5 DCs in the top wells. For chemokinesis studies, the concentration of cytokine in each compartment was equal at 500 ng/ml and 3×10^5 DCs were added to the top wells. The number of cells that migrated from the top well to the bottom well through the porous membrane was counted at the end of 12 h to quantify migration. Cells that had migrated to the bottom well were collected by treatment with 0.25% trypsin-0.03% ethylenediaminetetraacetic acid (EDTA, Invitrogen) and counted with a Z2 coulter counter (Beckman Coulter, Inc).

dendritic cells [6] = experiment: Example 8: DC recruitment and activation in cytokine loaded PLG matrices (FACS, day 7); format: in vivo, C57BL/6J mice; conditions: for DC recruitment relative to blank PLG matrices: day 7
Protocol: To analyze DC recruitment by FACS analysis, scaffolds were excised and the ingrown tissue was digested into single cell suspensions using a collagenase solution (Worthingtion, 250 U/ml) that was agitated at 37° C. for 45 minutes. The cell suspensions were then poured through a 40 μm cell strainer to isolate cells from scaffold particles and the cells were pelleted and washed with cold PBS and counted using a Z2 coulter counter (Beckman Coulter). To assess, DC infiltration and activation, subsets of the total cell population isolated from PLG matrices were then stained with primary antibodies (BD Pharmingen, San Diego, Calif.) conjugated to fluorescent markers to allow for analysis by flow cytometry. APC-conjugated CD11c (dendritic cell marker), FITC-conjugated MHCII and PE-conjugated CD86 (B7, costimulatory molecule) stains were conducted for DC recruitment and activation analysis. To delineate the presence of the plasmacytoid DC subset, cells were also stained with APC-conjugated CD11c and PE-conjugated PDCA-1 (plasmacytoid DC marker). Cells were gated according to single positive FITC, APC and PE stainings using isotype controls. The percentage of cells staining positive for each surface antigen was recorded.

IL-12p70 and IFN-γ = conditions: tumor lysate and CpG-ODN
Protocol: To determine the in vivo IL-12p70 and IFN-γ concentration at the matrix implant site, adjacent tissue was excised and digested with tissue protein extraction reagent at Day 10 after implantation (Pierce). After centrifugation, the concentrations of IL-12 and IFN-γ, in the supernatant were then analyzed with ELISA (R&D systems), according to the manufacturer's instructions. To determine the generation of TRP-2-specific cytotoxic T lymphocytes, single cell suspensions were prepared at Day 10 from the spleens of mice immunized with PLG vaccines. These cells were initially stained with PE-H-2Kb/TRP2 pentamers (Sigma Aldrich), and subsequently stained with FITC-anti-CD8 and PE-CY7 CD3 mAb (mAb (BD Pharmingen, San Diego) before being analyzed using flow cytometry.

[7] = tested on: TRP-2-specific cytotoxic T lymphocytes; experiment: Example 8: TRP-2-specific cytotoxic T lymphocytes in spleens (Day 10); design: species or system C57BL/6J mice; conditions: mouse, in vivo
B16-F10 melanoma cells [8] = experiment: Example 8: therapeutic vaccination, B16-F10 melanoma; format: in vivo, C57BL/6J mice; conditions: vaccinated three days after tumor challenge
Protocol: PLG scaffolds containing B16-F10 melanoma tumor lysates, 100 μg CpG-ODN in combination with 3 μg GM-CSF, Flt3L or CCL20 were implanted subcutaneously into the lower left flank of C57BL/6J mice to act as cancer vaccines. To assess PLG vaccine efficacy in the therapeutic setting, C57/BL6J mice were challenged with a subcutaneous injection of 5×10^5 B16-F10 melanoma cells (ATCC, Manassas, N.J.) in the back of the neck, and 3 days after tumor challenge PLG vaccines were implanted subcutaneously into the lower left flank. Animals were monitored for the onset of tumor growth (approximately 1 mm^3) and sacrificed for humane reasons when tumors grew to 20-25 mm (longest diameter).

| Molecule | CD8(+) DCs at implant site, higher than controls (dendritic cells [1]) | CD11c(+) cells positive for MHCII(+) and CD86(+), of total cells recruited (dendritic cells [1]) [%] | enhancement of total number of recruited DCs compared to GM-CSF delivery alone (dendritic cells [1]) [fold] | increase in total number of activated DCs relative to control matrices (dendritic cells [1]) | effect on IFN-α concentration at vaccine site (IL-12p70) | survival rate (B16-F10 melanoma cells [2]) [%] | increase in IFNγ(+), CD107a(+) TILs in comparison to controls (B16-F10 tumors) [fold] | complete tumor regression, fraction of vaccinated animals (B16-F10 melanoma cells [3]; mouse, in vivo) | incorporated cytokine released from scaffolds [4] [%] | daily release of protein [4] | DC chemotaxis, migration higher than control condition [5] | DC chemokinesis, increase in number of migrated cells [5] | DC recruitment relative to blank PLG matrices (dendritic cells [6]) [fold] | resident CD11c(+)PDCA-1(+) pDCs (dendritic cells [6]; in combination with CpG-ODN) | increase in local concentration of IFN-γ over control scaffolds (IL-12p70 and IFN-γ) | increase in local concentration of IL-12 over control scaffolds (IL-12p70 and IFN-γ) [fold] | long-term survival rate (B16-F10 melanoma cells [8]) [%] | further results |
| --- | --- | --- | --- | --- | --- | --- | --- | --- | --- | --- | --- | --- | --- | --- | --- | --- | --- | --- |
| monophosphoryl lipid A [MPLA] | approximately 5 fold | ~19 | 1.9 | approximately 15 fold | no effect | 80 | ~1.4 | did not cause tumors to completely regress |  |  |  |  |  |  |  |  |  | IL-12 concentration lower than CpG-ODN and P(I:C) (IL-12p70): 2 fold; higher levels of TNF-α (IL-12p70): 4 fold; increase in mean survival time over controls (B16-F10 melanoma cells [3]; vaccinated at days 9 and 19): ~1.5 fold |
| polyinosinic:polycytidylic acid [P(I:C)] | approximately 5 fold | ~28 | 2.2 | ~20 fold | elevated levels | 70 | ~3.1 | over a third |  |  |  |  |  |  |  |  |  | size of tumors that completely regressed / were eradicated (B16-F10 melanoma cells [3]; mouse, in vivo): 35 mm^2; long term survival of mice (B16-F10 melanoma cells [3]; vaccinated at days 9 and 19): 33% |
| B1 |  |  |  |  |  |  |  |  | ~36 | approximately 0.9% | no effect | no effect | 2.5 | over 160,000 | 13 fold | 8 | 75 | pDCs of total cells resident in scaffolds (dendritic cells [6]; in combination with CpG-ODN): approximately 22%; Trp2 specific CTLs in spleens, higher than control vaccines [7]: approximately 5 fold |
| B2 |  |  |  |  |  |  |  |  | ~26 | approximately 0.9% | no effect | no effect | 2.5 | approximately 110,000 | no effect | 2 | 62 |  |
